Where two headings read alike, the source gives them in different places. Blank lines part the entries; values can stand above or below the compound they belong to.
Assays:
Bst 2.0 DNA polymerase = assay: Homopolymer assays of nucleotide analogs (Example 10); format: biochemical
Description: A homopolymer assay was performed to investigate the effectiveness of E-dCTP and P-dUTP as nucleotide analogs of dCTP. 50 μl solutions containing a template nucleic acid molecule and primer and Bst 2.0 DNA polymerase are placed in a microplate reader and the fluorescence of the solution is measured in kinetic mode. A fluorescein attached to an oligonucleotide (indicated with a * in FIG. 7) was quenched in the substrate due to the proximity of complementary G bases. Addition of dCTP and/or dCTP analogs causes extension of the 3′ end of the primer, formation of double-stranded DNA, and unquenching of the fluorescein. The fluorescence increases with the addition of multiple nucleotides.
Additional homopolymer assays were performed according to the procedure outlined in Example 8 using different nucleotides and nucleotide analogs.
To test for dUTP or TTP incorporation, oligo 332 was used as a template and oligo 221L was used as a primer. To test for dCTP incorporation, oligo 333 was used as a template and oligo 221L was used as a primer. To test for dGTP incorporation, oligo 334 was used as a template and oligo 221L was used as a primer. To test for dATP incorporation, hairpin oligo 221 was used as both a primer and template.

DNA polymerase = conditions: for peak height (red fluorescence on the gel): dUTP* only (Fr = 1.0) or dUTP*/named dUTP^0
Description: A gel assay was also performed to examine context-dependent incorporation. […] The primers had different lengths poly-T tails to enable separation on a polyacrylamide gel. […] Excess nucleotides and nucleotide analogs were washed away and the sample was loaded onto a gel.
The red fluorescence on the gel was analyzed with ImageJ. The peak heights for the extension reactions for each primer with Fr=1.0 was measured. […] The ratios of the peak heights for each pair were calculated (“norm.”). […] The metric in this experiment was context, as defined as: C=(Maximum signal−minimum signal)/(average signal).

hairpin oligo = assay: Kinetic assay using hairpin oligos (Example 7); format: biochemical
Description: A kinetic assay using hairpin oligos was also performed to determine the rate of incorporate of an unnatural nucleotide and a natural nucleotide following the unnatural nucleotide. […] Incorporation of a T or U analog unquenched a fluorescein in the hairpin oligo. Following incorporation of the T or U analog, a mixture of C and A was added, which further unquenched the dye.

Bst DNA polymerase v.2.0 = assay: Flow cytometry assay: tolerance of dye-labeled dUTP* compared to dUTP analogs (Example 7); format: biochemical; conditions: for Tolerance: tolerance of dUTP* compared to the named dUTP^0
Description: A solution of biotinylated template (2 microliters (μL) of 100 μM) and dye-labeled primer (4 μL of 100 μM) were combined in annealing buffer (40 μL; Tris (10 millimolar (mM)), EDTA (1 mM), NaCl (100 mM)). The resulting solution was heated to 95° C. and allowed to slowly cool to room temperature. A portion of this solution (8 μL) was mixed with streptavidin-labeled magnetic beads (4 μL of Invitrogen Dynabeads™ MyOne™ Streptavidin C1, 10 milligrams/milliliter (mg/mL); washed and eluant removed) and 2× bead wash buffer (8 μL; 10 mM Tris, pH 7.5, 1 mM EDTA, 2 M NaCl, 0.01% Triton X-100). After washing with TET solution (10 mM Tris, 1 mM EDTA, 0.05% Triton X-100) the beads were treated with Bst DNA polymerase v.2.0 (8 μL of 8 units (U)/μL; New England Biolabs) for five minutes. The excess enzyme was removed by washing with TET and the beads were suspended in 1×DNA polymerase buffer solution (20 mM Tris, pH 8, 10 mM NaCl, 2 mM MgCl2, 0.01% Triton X-100). The sequence of the biotinylated template was /52 Bio//iSp18/[…] […] (SEQ ID NO: 12), where “5” is indicative of the 5′-end of the oligo, 2-Bio indicates dual biotin, and iSP18 indicates a PEG spacer. […] […] (SEQ ID NO: 13), where “5” indicates the 5′-end of the oligo and JOE indicates a fluorescent dye attached to the oligo.
Next, a portion of the suspended magnetic beads (10 μL) were removed and placed in a PCR tube. A solution of nucleotides (10 μL) was added to the tube and the tube incubated for 40 seconds (s) at 50° C. The enzyme reaction was stopped with the addition of 5 μL of 50 mM EDTA. The beads were washed with 2×100 μL TET and resuspended in 20 μL TET. A portion of the bead solution (1 μL) was added to TE (200 μL) and the beads examined for red fluorescence on a flow cytometer (BD Accuri™, APC channel). The eluant of the remaining beads was removed and 40 μL of 95:5 formamide:10 mM EDTA was added to the beads. A portion of the formamide solution (1 μL) was added to 40 μL 95:5 formamide EDTA. The solutions were examined by capillary electrophoresis (CE) on an ABI 3730 instrument and the peaks identified and quantitated by peak height. The experimental protocol is summarized schematically in FIG. 2.
Tolerance was measured at two molar fractions, […] and 0.05, for each of the four dUTP analogs.

[1] = Natural Nucleotide C (dCTP = 1), template oligo 333, primer 221L
[2] = Natural Nucleotide T (TTP = 1), template oligo 332, primer 221L
[3] = Natural Nucleotide A (dATP = 1), hairpin oligo 221
[4] = Natural Nucleotide G (dGTP = 1), template oligo 334, primer 221L

Compound: Nc1nc(=O)n([C@H]2C[C@H](O)[C@@H](COP(=O)(O)OP(=O)(O)OP(=O)(O)O)O2)cc1Br [5-Bromo-dCTP, 5-bromo-2′-deoxycytidine 5′triphosphate]
- Relative Rate in Homopolymer Assay (Bst 2.0 DNA polymerase; [1]): >1

Compound: O=c1[nH]c(=O)n([C@H]2C[C@H](O)[C@@H](COP(=O)(O)OP(=O)(O)OP(=O)(O)O)O2)cc1Br [5-Bromo-dUTP, 5-bromo-2′-deoxyuridine 5′triphosphate]
- Relative Rate in Homopolymer Assay (Bst 2.0 DNA polymerase; [2]): >1

Compound: O=c1[nH]c(=O)n([C@H]2C[C@H](O)[C@@H](COP(=O)(O)OP(=O)(O)OP(=O)(O)O)O2)cc1F [5-Fluoro-dUTP, 5-fluoro-2′-deoxyuridine 5′triphosphate]
- Relative Rate in Homopolymer Assay (Bst 2.0 DNA polymerase; [2]): <1

Compound: Nc1nc(=O)n([C@H]2C[C@H](O)[C@@H](COP(=O)(O)OP(=O)(O)OP(=O)(O)O)O2)cc1CO [5-Hydroxymethyl-dCTP, 5-ydroxymethyl-2′-deoxycytidine 5′triphosphate]
- Relative Rate in Homopolymer Assay (Bst 2.0 DNA polymerase; [1]): <<1

Compound: Nc1nc(=O)n([C@H]2C[C@H](O)[C@@H](COP(=O)(O)OP(=O)(O)OP(=O)(O)O)O2)cc1C=O [5-formyl-dCTP, 5-formyl-2′-deoxycytidine 5′triphosphate]
- Relative Rate in Homopolymer Assay (Bst 2.0 DNA polymerase; [1]): <<1

Compound: Nc1ncnc2c1nc(Br)n2[C@H]1C[C@H](O)[C@@H](COP(=O)(O)OP(=O)(O)OP(=O)(O)O)O1 [Bromo-dATP, bromo-deoxyadenosine triphosphate]
- Relative Rate in Homopolymer Assay (Bst 2.0 DNA polymerase; [3]): >1

Compound: CC#Cc1cn([C@H]2C[C@H](O)[C@@H](COP(=O)(O)OP(=O)(O)OP(=O)(O)O)O2)c(=O)[nH]c1=O [P-dUTP, 5-propynyl-2′-deoxyuridine 5′triphosphate]
- Relative Rate in Homopolymer Assay (Bst 2.0 DNA polymerase; [2]): >1
- Norm. (ratio of peak height dUTP*/dUTP^0 to Fr=1.0) (DNA polymerase; Peak 1): 1.3
- peak height (red fluorescence on the gel) (DNA polymerase; Peak 1 (primer)): 55
- Norm. (ratio of peak height dUTP*/dUTP^0 to Fr=1.0) (DNA polymerase; Peak 2): 1.4
- peak height (red fluorescence on the gel) (DNA polymerase; Peak 2 (primer)): 54
- Norm. (ratio of peak height dUTP*/dUTP^0 to Fr=1.0) (DNA polymerase; Peak 3): 1.0
- peak height (red fluorescence on the gel) (DNA polymerase; Peak 3 (primer)): 27
- Norm. (ratio of peak height dUTP*/dUTP^0 to Fr=1.0) (DNA polymerase; Peak 4): 1.1
- peak height (red fluorescence on the gel) (DNA polymerase; Peak 4 (primer)): 36
- Norm. (ratio of peak height dUTP*/dUTP^0 to Fr=1.0) (DNA polymerase; Peak 5): 1.4
- peak height (red fluorescence on the gel) (DNA polymerase; Peak 5 (primer)): 32
- context C=(Maximum signal−minimum signal)/(average signal) (DNA polymerase; five primers, gel assay with dUTP*): 0.32
- incorporation of dCTP and dATP after the dUTP analog (hairpin oligo; mixture of C and A added after T or U analog): rapid
- initial incorporation of dUTP analog (hairpin oligo; unquenching of fluorescein in hairpin oligo): rapid
- performance as a substrate compared with TTP (in words) (Bst DNA polymerase v.2.0; from tolerance for the labeled nucleotide at both molar fractions): outperforms TTP as a substrate
- Apparent fraction (Bst DNA polymerase v.2.0; molar fraction dUTP* 0.05): 0.032
- Red signal (Bst DNA polymerase v.2.0; molar fraction dUTP* 0.05, rest the named dUTP^0): 1,600
- Apparent fraction (Bst DNA polymerase v.2.0; molar fraction dUTP* 0.5): 0.32
- Red signal (Bst DNA polymerase v.2.0; molar fraction dUTP* 0.5, rest the named dUTP^0): 16,000
- Tolerance (Bst DNA polymerase v.2.0; molar fraction dUTP* 0.05): 0.6
- Tolerance (Bst DNA polymerase v.2.0; molar fraction dUTP* 0.5): 0.6

Results, then the compound that gave them:

- Relative Rate in Homopolymer Assay (Bst 2.0 DNA polymerase; [1]): <<1
Compound: Nc1nc(=O)n([C@H]2C[C@H](O)[C@@H](COP(=O)(O)OP(=O)(O)OP(=O)(O)O)O2)cc1O [5-Hydroxy-dCTP, 5-hydroxy-2′-deoxycytidine 5′triphosphate]

- Relative Rate in Homopolymer Assay (Bst 2.0 DNA polymerase; [2]): >1
Compound: O=c1[nH]c(=O)n([C@H]2C[C@H](O)[C@@H](COP(=O)(O)OP(=O)(O)OP(=O)(O)O)O2)cc1I [5-Iodo-dUTP, 5-iodo-2′-deoxyuridine 5′triphosphate]

- Relative Rate in Homopolymer Assay (Bst 2.0 DNA polymerase; [1]): >1
Compound: Cc1cn([C@H]2C[C@H](O)[C@@H](COP(=O)(O)OP(=O)(O)OP(=O)(O)O)O2)c(=O)nc1N [5-Methyl-dCTP, 5-methyl-2′-deoxycytidine 5′triphosphate]

- Relative Rate in Homopolymer Assay (Bst 2.0 DNA polymerase; [2]): <<1
Compound: C#CCNc1cn([C@H]2C[C@H](O)[C@@H](COP(=O)(O)OP(=O)(O)OP(=O)(O)O)O2)c(=O)[nH]c1=O [5-Propargylamino-dUTP, 5-proparylamino-2′-deoxyuridine 5′triphosphate]

- Relative Rate in Homopolymer Assay (Bst 2.0 DNA polymerase; [3]): >1
Compound: Nc1ncnc2c1c(I)cn2[C@H]1C[C@H](O)[C@@H](COP(=O)(O)OP(=O)(O)OP(=O)(O)O)O1 [7-Iodo-7-deaza-dATP, 7-deaza-7-iodo-2′-deoxyadenosine-5′-triphosphate]

- Relative Rate in Homopolymer Assay (Bst 2.0 DNA polymerase; [3]): <1
Compound: Nc1ncnc2c1ccn2[C@H]1C[C@H](O)[C@@H](COP(=O)(O)OP(=O)(O)OP(=O)(O)O)O1 [7-deaza-dATP, 7-deaza-2′-deoxyadenosine-5′-triphosphate]

- Relative Rate in Homopolymer Assay (Bst 2.0 DNA polymerase; [4]): <1
Compound: Nc1nc2c(ccn2[C@H]2C[C@H](O)[C@@H](COP(=O)(O)OP(=O)(O)OP(=O)(O)O)O2)c(=O)[nH]1 [7-deaza-dGTP, 7-deaza-2′-deoxyguanosine-5′-triphosphate]

- Relative Rate in Homopolymer Assay (Bst 2.0 DNA polymerase; [3]): 1
Compound: Nc1ncnc2c1ncn2[C@H]1C[C@H](O)[C@@H](COP(=O)(O)OP(=O)(O)OP(=O)(O)O)O1 [dATP, deoxyadenosine triphosphate, reference compound]

- Relative Rate in Homopolymer Assay (Bst 2.0 DNA polymerase; [4]): 1
Compound: Nc1nc2c(ncn2[C@H]2C[C@H](O)[C@@H](COP(=O)(O)OP(=O)(O)OP(=O)(O)O)O2)c(=O)[nH]1 [dGTP, deoxyguanosine triphosphate, reference compound]

- Relative Rate in Homopolymer Assay (Bst 2.0 DNA polymerase; [4]): >1
Compound: iodo-2′-deoxyguanosine-5′-triphosphate [Iodo-dGTP]

Source: patent publication US11326207B2, “Sequencing using non-natural nucleotides” (Ultima Genomics, Inc., priority 2017, dated 2022)
